According to paper doi:10.1101/2025.11.23.690065v1 (biorxiv, 2025):

What was measured:
TREM1 [1] = molecular target: T1, TREM1 (Homo sapiens, UniProt Q9NP99); test: single-dose TRIC/MST screen; format: binding; conditions: PBS pH 7.4, 0.05% Tween-20; bound from single-dose screen at 300 µM
His-TREM2 (TREM2) [2] = molecular target: T2, His-TREM2 (TREM2) (Homo sapiens, UniProt Q9NZC2); test: MST; format: binding
T2 sequence (Q9NZC2 19-174 limits assumed): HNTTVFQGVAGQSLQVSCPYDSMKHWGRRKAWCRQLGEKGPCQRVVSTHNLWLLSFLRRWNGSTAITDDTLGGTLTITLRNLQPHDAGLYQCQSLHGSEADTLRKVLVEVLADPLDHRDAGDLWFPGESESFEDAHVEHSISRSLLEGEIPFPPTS

LAG-3 [3] = molecular target: T3, LAG-3 (Homo sapiens, UniProt P18627); test: single-dose TRIC screen; format: binding; conditions: 2% DMSO; bound from single-dose screen at 300 µM
T3 sequence (P18627 23-525): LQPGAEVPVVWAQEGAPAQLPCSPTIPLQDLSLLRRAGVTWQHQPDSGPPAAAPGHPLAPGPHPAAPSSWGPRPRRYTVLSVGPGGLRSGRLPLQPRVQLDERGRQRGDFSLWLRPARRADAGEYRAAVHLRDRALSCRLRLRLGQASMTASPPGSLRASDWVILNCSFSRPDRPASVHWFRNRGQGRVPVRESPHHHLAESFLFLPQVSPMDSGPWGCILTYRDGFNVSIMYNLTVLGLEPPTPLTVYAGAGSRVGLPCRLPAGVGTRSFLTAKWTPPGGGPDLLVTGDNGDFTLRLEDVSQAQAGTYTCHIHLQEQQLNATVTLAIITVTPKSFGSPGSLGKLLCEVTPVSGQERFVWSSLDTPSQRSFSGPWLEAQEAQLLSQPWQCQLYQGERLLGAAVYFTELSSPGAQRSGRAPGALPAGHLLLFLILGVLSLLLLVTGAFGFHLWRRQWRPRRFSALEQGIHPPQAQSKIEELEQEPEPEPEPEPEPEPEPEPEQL

LAG-3 [4] = molecular target: T3, LAG-3; test: MST; format: binding
TREM1 [5] = molecular target: T1, TREM1; test: MST; format: binding
His-TREM2 (TREM2) [6] = molecular target: T2, His-TREM2 (TREM2); test: biochemical
His-TREM2 (TREM2) [7] = molecular target: T2, His-TREM2 (TREM2); test: nanoDSF thermal shift; format: binding; conditions: read-out: ΔTm at 100 μM
His-TREM2 (TREM2) [8] = molecular target: T2, His-TREM2 (TREM2); test: nanoDSF thermal shift, dose-response; format: binding

T1 sequence (Q9NP99 21-205 limits assumed): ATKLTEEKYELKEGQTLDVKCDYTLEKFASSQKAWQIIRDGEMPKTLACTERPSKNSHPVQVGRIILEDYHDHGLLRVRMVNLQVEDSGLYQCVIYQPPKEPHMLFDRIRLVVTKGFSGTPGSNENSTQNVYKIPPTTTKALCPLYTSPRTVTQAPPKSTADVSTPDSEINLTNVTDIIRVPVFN

| KD (TREM1 [1]) | Kd (His-TREM2 (TREM2) [2]) | KD (LAG-3 [3]) | Kd (LAG-3 [4]) | Kd (TREM1 [5]) | Kd (His-TREM2 (TREM2) [6]) | ΔTm at 100 µM (His-TREM2 (TREM2) [7]) | EC50 (His-TREM2 (TREM2) [8]) | Compound |
| --- | --- | --- | --- | --- | --- | --- | --- | --- |
| > 300 µM | 124 ± 36 µM | > 300 µM |  |  |  |  |  | NC(=O)C1CCN(C(=O)c2cccn(Cc3ccccc3)c2=O)CC1 [2M06-1] |
| > 300 µM | > 300 µM | > 300 µM |  |  |  |  |  | Cn1cc(C(=O)N2C(C(=O)O)CC3CCCCC32)ccc1=O (stereo not drawn) [2M06-6] |
| > 300 µM | 26.1 ± 5.1 µM | > 300 µM |  |  |  |  |  | Cc1cccc(Cn2cccc(C(=O)N3C(C(=O)O)CC4CCCCC43)c2=O)c1 (stereo not drawn) [2M06] |
|  | 19.5 ± 6.8 µM |  | 59.4 ± 14.1 µM | 121 ± 3.4 µM |  |  |  | O=C1CCCN1c1ccc2c(c1)CCN2 [6B10-1] |
| > 300 µM | > 300 µM | > 300 µM |  |  |  |  |  | CC(C)(C)CC(=O)Nc1ccc2c(c1)CCN2 [6B10-2] |
| > 300 µM | > 300 µM | > 300 µM |  |  |  |  |  | COC1(CC(=O)Nc2ccc3c(c2)CCN3)CCC1 [6B10-3] |
| > 300 µM | 127 ± 16 µM | > 300 µM |  |  | 136 ± 14 µM |  |  | CC1(C(=O)Nc2ccc3c(c2)CCN3C(=O)c2ccoc2)CCCC1 [6B10-8] |
| > 300 µM | 68.3 ± 2.8 µM | > 300 µM |  |  |  | > 2 °C | 62 µM | O=C(Nc1ccc2c(c1)CCN2C(=O)c1ccoc1)C1CC2C=CC1C2 (stereo not drawn) [6B10-9] |
| > 300 µM | > 300 µM | > 300 µM |  |  |  |  |  | CC(=O)N1CCc2cc(NC(=O)C3(C#N)CCCC3)ccc21 [6B10-13] |
|  | 37.6 ± 15.8 µM | > 300 µM |  | 66.9 ± 28.6 µM |  |  |  | O=C(Nc1ccc2c(c1)CCN2)C1CCCC1 [6B10] |
|  | 3.8 ± 0.3 µM |  | 61.9 ± 23.2 µM | 46.5 ± 38.1 µM |  |  |  | Cc1cccn2c(=O)cc(CN3C(C(=O)O)CC4CCCCC43)nc12 (stereo not drawn) [7G19] |

| Compound | KD (TREM1 [1]) | Kd (His-TREM2 (TREM2) [2]) | KD (LAG-3 [3]) | Kd (LAG-3 [4]) | Kd (TREM1 [5]) | Kd (His-TREM2 (TREM2) [6]) | ΔTm at 100 µM (His-TREM2 (TREM2) [7]) | EC50 (His-TREM2 (TREM2) [8]) |
| --- | --- | --- | --- | --- | --- | --- | --- | --- |
| Cc1cccc(Cn2cccc(C(=O)NC3CCCCCC3)c2=O)c1 [2M06-8] | > 300 µM | > 300 µM | > 300 µM |  |  |  |  |  |
| O=C(O)C1CC2CCCCC2N1Cc1cc(=O)n2ccccc2n1 (stereo not drawn) [7G19-5] |  | 4.5 ± 0.9 µM | > 300 µM |  | 56.6 ± 8.6 µM |  |  |  |
